The values below are quoted from earlier work in patent US20120238571A1, “INDAZOLE DERIVATIVES AS PI 3-KINASE” (Glaxo Group Limited, priority 2009, published 2012).

The target of one data set is CK2 protein kinase (Homo sapiens, UniProt P68400).

Read-outs that look alike come from different tables or passages of the source.

Chain of CK2 protein kinase (P68400 whole entry): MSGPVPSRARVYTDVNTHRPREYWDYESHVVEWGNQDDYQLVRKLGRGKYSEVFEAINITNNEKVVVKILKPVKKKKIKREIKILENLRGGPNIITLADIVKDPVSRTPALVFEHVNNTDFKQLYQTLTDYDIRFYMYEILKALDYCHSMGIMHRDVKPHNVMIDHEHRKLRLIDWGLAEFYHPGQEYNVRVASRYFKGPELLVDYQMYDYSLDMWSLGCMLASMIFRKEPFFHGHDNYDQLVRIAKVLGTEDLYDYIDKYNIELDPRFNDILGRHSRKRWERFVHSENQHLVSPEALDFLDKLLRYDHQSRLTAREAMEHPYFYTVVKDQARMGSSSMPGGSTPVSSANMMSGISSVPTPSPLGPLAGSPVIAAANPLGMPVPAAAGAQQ

The term IC50 denotes the midpoint of a concentration-inhibition curve. On to `COC[C@H]1OC(=O)c2coc3c2[C@@]1(C)C1=C(C3=O)[C@@H]2CCC(=O)[C@@]2(C)C[C@H]1OC(C)=O` [wortmannin], for which the IC50 in the data set with Class I PI3-kinases (each of the four Class I PI3-kinases, read-out: IC50 against each of the various Class I PI3-kinases) was 0.001 to 0.01 µM.

In the case of `O=c1cc(N2CCOCC2)oc2c(-c3ccccc3)cccc12` [LY294002], the IC50 is 5 to 10 µM at CK2 protein kinase and 15 to 20 µM in the data set with Class I PI3-kinases (each of the Class I PI3-kinases, Fruman et al. 1998, read-out: IC50 against each of these PI3-kinases).
